The values below come from patent US12172992B2, “Pyrimidines for degrading Bruton's tyrosine kinase” (AbbVie Inc., priority 2022, dated 2024).

Each structure is given as a SMILES string.

The target in the assay is BTK protein in human whole blood (Homo sapiens (Human), UniProt Q06187). In words: Btk protein in human whole blood MSD ELISA based assay (BTK degradation). It is filed as cell-based. The following applies: 6 hours, maximum BTK degradation compared to DMSO only treated samples, read-out: hWB BTK dMax (%). On the procedure: Btk protein degradation was tested using an Meso Scale Discovery-ELISA system (MSD-ELISA): (1) Test compounds were added to human whole blood; (2) human whole blood cells treated with test compounds were lysed; (3) lysed cells were treated with capture antibody, an antibody to Btk; (4) lysed cells were treated with […] to Btk; and (5) lysed cells were treated with anti-mouse antibody (tagged).
Sequence of BTK protein in human whole blood (Q06187 whole entry): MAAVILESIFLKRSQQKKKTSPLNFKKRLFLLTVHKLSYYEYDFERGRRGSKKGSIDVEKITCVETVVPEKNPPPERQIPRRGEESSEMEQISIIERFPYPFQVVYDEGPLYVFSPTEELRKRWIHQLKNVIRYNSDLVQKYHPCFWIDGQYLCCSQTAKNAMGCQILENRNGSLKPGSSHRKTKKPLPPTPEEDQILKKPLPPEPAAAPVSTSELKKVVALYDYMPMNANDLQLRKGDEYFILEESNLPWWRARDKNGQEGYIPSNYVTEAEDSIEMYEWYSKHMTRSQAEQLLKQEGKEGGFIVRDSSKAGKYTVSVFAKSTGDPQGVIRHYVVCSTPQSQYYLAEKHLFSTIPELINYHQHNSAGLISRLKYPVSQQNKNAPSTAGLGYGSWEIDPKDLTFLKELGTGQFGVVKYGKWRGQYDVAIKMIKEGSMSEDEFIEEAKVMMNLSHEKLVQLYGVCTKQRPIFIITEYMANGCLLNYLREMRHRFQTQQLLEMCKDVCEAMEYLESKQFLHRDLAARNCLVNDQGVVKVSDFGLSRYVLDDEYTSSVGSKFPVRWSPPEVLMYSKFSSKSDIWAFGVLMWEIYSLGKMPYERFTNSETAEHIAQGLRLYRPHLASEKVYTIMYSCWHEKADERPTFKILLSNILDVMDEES
Specifically, about 80 μl of fresh human whole blood from healthy donors was transferred into each well of a 96-well V-bottom plate (Costar, Cat No. 3894). Using a TECAN™ D300e Digital Dispenser (Tecan)), 1:4 serially diluted compounds [(8 pt assay) in DMSO solution (final 0.2%) starting at 3 μM top concentration], were added in duplicate. Thereafter, plates were placed in a 37° C. incubator and incubated for 6 hours.
At the end of incubation, 80 μl of 2×CST lysis buffer (Cell Signaling Technology, Cat No. 9803), prepared from a 10× stock solution, was added per well to lyse the blood. Plates were then sealed with a plate sealer and the samples were frozen overnight at −80° C.
Total amount of BTK protein remaining in the blood samples after compound treatment was measured using MSD-ELISA. After thawing the frozen plates, blood lysates were mixed thoroughly and transferred to small spot high-bind MSD plates (Meso Scale Discovery, Cat No. L45XB-3) and coated with capturing antibody, rabbit anti-human BTK (D3H5) (Cell Signaling Technology, Cat No. 8547CF). Thereafter, primary detection antibody, mouse anti-human BTK monoclonal antibody, (BD Biosciences, Cat No. 611117) and secondary detection antibody, anti-mouse SULFO-TAG (Meso Scale Discovery, Cat No. R32AC-1) were added. The assay plates were read on an MSD S600 plate reader by the addition of 2×MSD read buffer (Meso Scale Discovery, R92TC-1). All reagent transfers, including blood lysis, was conducted using a Biomed i7 liquid handler. From the dose response curves, DC50 values were calculated by averaging data from duplicate experiments. and Curve fitting was done by non-linear regression using GraphPad Prism. The DC50 values are reported in Table 2 in the hWB BTK DC50 (nM) column The Dmax values represent the maximum amount of BTK degradation observed upon compound treatment compared to DMSO only treated samples. The dMax (%) values are reported in Table 2 in the hWB BTK dMax (%) column.
As a reminder, the Dmax is the largest share of the target that was removed. For `COC[C@H]1CN(CCc2ccc(N3CCC(=O)NC3=O)cc2)CCN1c1ccc(Nc2cc(-c3ccc([C@@H](C)NC(=O)c4nc(C(C)(C)C)no4)c(C)c3)ncn2)nc1` [Example 15, 3-tert-butyl-N-[(1R)-1-{4-[6-({5-[(2R)-4-{2-[4-(2,4-dioxo-1,3-diazinan-1-yl)phenyl]ethyl}-2-(methoxymethyl)piperazin-1-yl]pyridin-2-yl}amino)pyrimidin-4-yl]-2-methylphenyl}ethyl]-1,2,4-oxadiazole-5-carboxamide], the greatest degradation seen (Dmax) turned out to be 99.9%.
As for `C[C@@H](NC(=O)c1nc(C(C)(C)C)no1)c1ccc(-c2cc(Nc3ccc(N4CCN(CCc5ccc(N6CCC(=O)NC6=O)cc5)C[C@@H]4C)cn3)ncn2)cc1C(F)(F)F` [Example 16, 3-tert-butyl-N-[(1R)-1-{4-[6-({5-[(2S)-4-{2-[4-(2,4-dioxo-1,3-diazinan-1-yl)phenyl]ethyl}-2-methylpiperazin-1-yl]pyridin-2-yl}amino)pyrimidin-4-yl]-2-(trifluoromethyl)phenyl}ethyl]-1,2,4-oxadiazole-5-carboxamide], the figure is 100%; as for `C[C@@H](NC(=O)c1nc(C(C)(C)C)no1)c1ccc(-c2cc(Nc3ccc(N4CCN(CCc5ccc(N6CCC(=O)NC6=O)cc5)C[C@@H]4C)cn3)ncn2)cc1F` [Example 17, 3-tert-butyl-N-[(1R)-1-{4-[6-({5-[(2S)-4-{2-[4-(2,4-dioxo-1,3-diazinan-1-yl)phenyl]ethyl}-2-methylpiperazin-1-yl]pyridin-2-yl}amino)pyrimidin-4-yl]-2-fluorophenyl}ethyl]-1,2,4-oxadiazole-5-carboxamide], 99.6%.
